From patent US6410011B1, “Gene therapy for restenosis using an adenoviral vector” (priority 1994, dated 2002)

Experiments:
[1] = patients treated for viral infection with a non-toxic dose; cited from earlier work
[2] = tested on: rabbit aorta VSMC; assay: Cytotoxic activity of the Ad-RSV-TK/ganciclovir combination on smooth muscle cells in culture, by cell counting; format: cell-based; conditions: ganciclovir alone or Ad-RSV-TK alone
Experimental: The activity of the adenovirus containing the TK gene, prepared in Example 1, was checked on in vitro models of smooth muscle cells. To this end, smooth muscle cells isolated from rat and rabbit aorta were infected with the recombinant adenovirus Ad-RSV-tk and incubated in the presence of ganciclovir. The effect of the Ad-RSV-tk/ganciclovir combination on cell viability is then confirmed by the colorimetric test employing MTT, 3-(4,5-dimethylthiazol-2-yl)-2,5-diphenyl-tetrazolium bromide, according to the technique described by Mosman (J. Immunol. Meth. 65 (1983) 55), or more accurately by cell counting. Briefly, vascular smooth muscle cells (VSMC) are set up in culture by enzymatic digestion of NZW rabbit aorta according to a method adapted from Chamley et al. (Cell Tissue Res. 177: 503-522 1977). The cells are maintained in the presence of 20% of foetal calf serum and used for all the tests (see below) before the tenth passage. […]
In order to measure the cytotoxic activity of the Ad-RSV-TK/ganciclovir combination, rabbit aorta VSMC are incubated in the presence of the adenovirus diluted in culture medium (DMEM, 0.5% FCS). […] Four days after the addition of ganciclovir, the cells are counted (100% cell viability corresponding to cells not transduced with Ad-RSV-TK and not treated with ganciclovir).

For Nc1nc(O)c2ncn(COC(CO)CO)c2n1 [ganciclovir], the plasma concentrations [1] is listed as “above 15 μM” and the “cell death with a single agent” value [2] is listed as “neither simple treatment with ganciclovir nor transduction with Ad-RSV-TK per se is associated with cell death”.
